Values of other authors, collected in patent publication EP0706556B1, “CLEANING AND DI[…]” (Henkel-Ecolab GmbH & Co. OHG, priority 1993, dated 1995).

Structure (SMILES): C=O [Formaldehyd]
- Konzentration, bei der Augenreizungen auftreten können (exposed persons, certain individuals): ≥ 0,4 ppm
- Konzentration, die Lungenödeme verursacht (inhalation, humans): 50 ppm
- Konzentration, die Tränenfluß verursacht (inhalation, humans): ≥ 0,1 ppm
